Experimental data reported in ChEMBL document CHEMBL5360532, “Current scenario of quinolone hybrids with potential antibacterial activity against ESKAPE pathogens” (Eur J Med Chem, 2023).
Converted amounts (≈) assume the structure as drawn.

What was measured:
Assay type in all cases: functional
[1] = test system: Staphylococcus aureus; test: Antibacterial activity against Staphylococcus aureus ATCC 6538p assessed as bacterial growth inhibition by agar dilution assay
[2] = test system: Escherichia coli; test: Antibacterial activity against Escherichia coli ATCC 25922 assessed as bacterial growth inhibition by agar dilution assay
[3] = test system: Escherichia coli; test: Antibacterial activity against Escherichia coli ATCC 25922 assessed as bacterial growth inhibition by broth microdilution assay
[4] = test system: Staphylococcus aureus; test: Antibacterial activity against Staphylococcus aureus ATCC 29213 assessed as bacterial growth inhibition by broth microdilution assay
[5] = test system: Escherichia coli; test: Antibacterial activity against Escherichia coli MTCC 1687 assessed as bacterial growth inhibition measured after 24 hrs by microdilution assay
[6] = test system: Staphylococcus aureus; test: Antibacterial activity against Staphylococcus aureus MLS16 MTCC 2940 assessed as bacterial growth inhibition measured after 24 hrs by microdilution assay
[7] = test system: Pseudomonas aeruginosa; test: Antibacterial activity against Pseudomonas aeruginosa MTCC 424 assessed as bacterial growth inhibition measured after 24 hrs by microdilution assay
[8] = test system: Staphylococcus aureus; test: Potency index, ratio of ciprofloxacin MIC to test compound MIC for antimicrobial activity against Staphylococcus aureus MLS16 MTCC 2940 assessed as bacterial growth inhibition measured after 24 hrs by microdilution assay
[9] = test system: Staphylococcus aureus; test: Antibacterial activity against Staphylococcus aureus MTCC 737 assessed as bacterial growth inhibition measured after 24 hrs by microdilution assay
[10] = test system: Escherichia coli; test: Potency index, ratio of ciprofloxacin MIC to test compound MIC for antimicrobial activity against Escherichia coli MTCC 1687 assessed as bacterial growth inhibition measured after 24 hrs by microdilution assay
[11] = test system: Staphylococcus aureus; test: Potency index, ratio of ciprofloxacin MIC to test compound MIC for antimicrobial activity against Staphylococcus aureus MTCC 424 assessed as bacterial growth inhibition measured after 24 hrs by microdilution assay
[12] = test system: Staphylococcus haemolyticus; test: Antibacterial activity against Staphylococcus haemolyticus clinical isolates assessed as bacterial growth inhibition measured after 16 to 24 hrs by broth microdilution assay; conditions: time 16-24 hrs
[13] = test system: Enterococcus faecalis; test: Antibacterial activity against Enterococcus faecalis clinical isolates assessed as bacterial growth inhibition measured after 16 to 24 hrs by broth microdilution assay; conditions: time 16-24 hrs
[14] = test system: Haemophilus influenzae; test: Antibacterial activity against Haemophilus influenzae assessed as bacterial growth inhibition measured after 16 to 24 hrs by broth microdilution assay; conditions: time 16-24 hrs
[15] = test system: Staphylococcus aureus; test: Antibacterial activity against Staphylococcus aureus assessed as bacterial growth inhibition measured after 16 to 24 hrs by broth microdilution assay; conditions: time 16-24 hrs
[16] = test system: Staphylococcus epidermidis; test: Antibacterial activity against Staphylococcus epidermidis clinical isolates assessed as bacterial growth inhibition measured after 16 to 24 hrs by broth microdilution assay; conditions: time 16-24 hrs
[17] = test system: Streptococcus pneumoniae; test: Antibacterial activity against Streptococcus pneumoniae clinical isolates assessed as bacterial growth inhibition measured after 16 to 24 hrs by broth microdilution assay; conditions: time 16-24 hrs
[18] = test system: Streptococcus suis; test: Antibacterial activity against Streptococcus suis clinical isolates assessed as bacterial growth inhibition measured after 16 to 24 hrs by broth microdilution assay; conditions: time 16-24 hrs
[19] = test system: Enterococcus faecalis; test: Antibacterial activity against Enterococcus faecalis assessed as bacterial growth inhibition measured after 16 to 24 hrs by broth microdilution assay; conditions: time 16-24 hrs
[20] = test system: Staphylococcus aureus; test: Antibacterial activity against Staphylococcus aureus clinical isolates assessed as bacterial growth inhibition measured after 16 to 24 hrs by broth microdilution assay; conditions: time 16-24 hrs
[21] = test system: Haemophilus parasuis; test: Antibacterial activity against Haemophilus parasuis clinical isolates assessed as bacterial growth inhibition measured after 16 to 24 hrs by broth microdilution assay; conditions: Glaesserella parasuis; time 16-24 hrs
[22] = test system: Enterococcus faecium; test: Antibacterial activity against Enterococcus faecium clinical isolates assessed as bacterial growth inhibition measured after 16 to 24 hrs by broth microdilution assay; conditions: time 16-24 hrs
[23] = test system: Streptococcus agalactiae; test: Antibacterial activity against Streptococcus agalactiae assessed as bacterial growth inhibition measured after 16 to 24 hrs by broth microdilution assay; conditions: time 16-24 hrs
[24] = test system: Staphylococcus aureus; test: Antibacterial activity against methicillin resistant Staphylococcus aureus assessed as bacterial growth inhibition measured after 16 to 24 hrs by broth microdilution assay; conditions: time 16-24 hrs
[25] = test system: Streptococcus pneumoniae; test: Antibacterial activity against Streptococcus pneumoniae assessed as bacterial growth inhibition measured after 16 to 24 hrs by broth microdilution assay; conditions: time 16-24 hrs
[26] = test system: Enterococcus; test: Antibacterial activity against vancomycin resistant Enterococcus assessed as bacterial growth inhibition measured after 16 to 24 hrs by broth microdilution assay; conditions: time 16-24 hrs

Compound: Cc1cc(N2CCN(c3cc4c(cc3F)c(=O)c(C(=O)O)cn4C3CC3)CC2)nc(Cl)n1
- MIC [1]: 7.4 µg/mL (≈ 16.2 µM)
- MIC [2]: 10.5 µg/mL (≈ 22.9 µM)

Compound: O=C(O)c1cn(C2CC2)c2cc(N3CCN(Cc4nc5ccccc5c(=O)[nH]4)CC3)c(F)cc2c1=O
- MIC [3]: 0.25 µg/mL (≈ 0.511 µM)
- MIC [4]: 0.031 µg/mL (≈ 0.0633 µM)

Compound: COc1ccc(-c2cc(-c3c(O)c4ccccc4[nH]c3=O)nc(N)c2C#N)cc1
- MIC [5]: 2.34 µg/mL (≈ 6.09 µM)
- MIC [6]: 2.34 µg/mL (≈ 6.09 µM)
- MIC [7]: 2.34 µg/mL (≈ 6.09 µM)
- Ratio [8]: 2
- MIC [9]: 2.34 µg/mL (≈ 6.09 µM)
- Ratio [10]: 2
- Ratio [11]: 2

Compound: C[C@H]1CCc2c(N3CCC(O)(COc4ccc(N5C[C@H](CO)OC5=O)cc4F)CC3)c(F)cc3c(=O)c(C(=O)O)cn1c23
- MIC [12]: ≤ 0.063 µg/mL
- MIC [13]: ≤ 0.063 µg/mL
- MIC [14]: 0.016 µg/mL (≈ 0.0267 µM)
- MIC [15]: 0.016 µg/mL (≈ 0.0267 µM)
- MIC [16]: ≤ 0.063 µg/mL
- MIC [17]: ≤ 0.063 µg/mL
- MIC [18]: ≤ 0.063 µg/mL
- MIC [19]: 0.016 µg/mL (≈ 0.0267 µM)
- MIC [20]: ≤ 0.063 µg/mL
- MIC [21]: ≤ 0.063 µg/mL
- MIC [22]: ≤ 0.063 µg/mL
- MIC [23]: 0.016 µg/mL (≈ 0.0267 µM)
- MIC [24]: 0.016 µg/mL (≈ 0.0267 µM)
- MIC [25]: 0.016 µg/mL (≈ 0.0267 µM)
- MIC [26]: 0.016 µg/mL (≈ 0.0267 µM)
